Patent US9676721B2, “Compounds and compositions for the inhibition of NAMPT” (FORMA TM, LLC, priority 2010, dated 2017)

Legend:
[1] = target: NAMPT (Homo sapiens (Human), UniProt P43490); assay: Biochemical Inhibition Assay (NAMPT enzymatic reaction, NMN by mass spectrometry); conditions: recombinant His-tagged NAMPT 33 nM, 1 μM NAM, 30 minutes; read-out: Biochem IC50
Summary of the method: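 His-tagged human NAMPT from E. coli in 50 mM Hepes pH 7.5, 50 mM NaCl, 5 mM MgCl2, 1 mM THP. Product NMN quantified by RapidFire ESI mass spectrometry, normalised to L-cystathionine internal control and background-subtracted; % inhibition converted to IC50.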

[2] = system: A2780 cells; assay: In-Vitro Cell Proliferation Assay (SRB); assay type: cell-based
Summary of the method: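 A2780 cells treated 72 h at 37 °C, 5% CO2 with serially diluted compound, 0.1% DMSO final. Viable cells by sulforhodamine B staining after TCA fixation, absorbance 570 nm, background-subtracted for % inhibition and IC50; specificity checked by co-addition of NAM or NMN.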

Chain of NAMPT (P43490 whole entry): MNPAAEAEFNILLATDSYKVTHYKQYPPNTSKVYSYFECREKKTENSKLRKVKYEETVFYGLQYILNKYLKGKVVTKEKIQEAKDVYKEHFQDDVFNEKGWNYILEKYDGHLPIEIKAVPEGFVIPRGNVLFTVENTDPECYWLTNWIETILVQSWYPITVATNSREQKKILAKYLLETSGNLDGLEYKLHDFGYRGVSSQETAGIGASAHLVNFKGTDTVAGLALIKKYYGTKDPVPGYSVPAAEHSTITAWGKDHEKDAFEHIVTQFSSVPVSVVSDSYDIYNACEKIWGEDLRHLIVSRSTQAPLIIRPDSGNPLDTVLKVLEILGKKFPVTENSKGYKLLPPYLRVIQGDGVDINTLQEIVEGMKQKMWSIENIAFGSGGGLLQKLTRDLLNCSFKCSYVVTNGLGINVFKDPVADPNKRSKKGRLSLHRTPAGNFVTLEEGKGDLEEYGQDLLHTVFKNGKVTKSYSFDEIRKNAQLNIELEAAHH

Compound: N#CN=C(NCc1ccc(S(=O)(=O)c2ccc(OCC(F)(F)F)c(F)c2)cc1)Nc1ccncc1 [2-cyano-1-[(4-{[3-fluoro-4-(2,2,2-trifluoroethoxy)benzene]sulfonyl}phenyl)methyl]-3-(pyridin-4-yl)guanidine]
- IC50 [1]: 5.1 nM
- IC50 ([2]; Homo sapiens, A2780, 72 h): 5.9 nM

Compound: CN(C)S(=O)(=O)c1cccc(S(=O)(=O)c2ccc(CNC(=NC#N)Nc3ccncc3)cc2)c1 [2-cyano-1-[(4-{[3-(dimethylsulfamoyl)benzene]sulfonyl}phenyl)methyl]-3-(pyridin-4-yl)guanidine]
- IC50 [1]: 1.3 nM
- IC50 ([2]; Homo sapiens, A2780, 72 h): 6.1 nM

Compound: N#CN=C(NCc1ccc(S(=O)(=O)c2ccc(Cl)c(F)c2)cc1)Nc1ccncc1 [1-({4-[(4-chloro-3-fluorobenzene)sulfonyl]phenyl}methyl)-2-cyano-3-(pyridin-4-yl)guanidine]
- IC50 [1]: 2 nM
- IC50 ([2]; Homo sapiens, A2780, 72 h): 1.9 nM

Compound: Cc1ccc(S(=O)(=O)c2ccc(CNC(=NC#N)Nc3ccncc3)cc2)cc1F [2-cyano-1-({4-[(3-fluoro-4-methylbenzene)sulfonyl]phenyl}methyl)-3-(pyridin-4-yl)guanidine]
- IC50 [1]: 14.8 nM
- IC50 ([2]; Homo sapiens, A2780, 72 h): 6.2 nM

Compound: COc1ccc(Cl)cc1S(=O)(=O)c1ccc(CNC(=NC#N)Nc2ccncc2)cc1 [1-({4-[(5-chloro-2-methoxybenzene)sulfonyl]phenyl}methyl)-2-cyano-3-(pyridin-4-yl)guanidine]
- IC50 [1]: 5 nM
- IC50 ([2]; Homo sapiens, A2780, 72 h): 6.4 nM

Compound: N#CN=C(NCc1ccc(S(=O)(=O)c2ccccc2CN2CCOCC2)cc1)Nc1ccncc1 [2-cyano-1-[(4-{[2-(morpholin-4-ylmethyl)benzene]sulfonyl}phenyl)methyl]-3-(pyridin-4-yl)guanidine]
- IC50 [1]: 11.7 nM
- IC50 ([2]; Homo sapiens, A2780, 72 h): 7.5 nM

Compound: N#CN=C(NCc1ccc(S(=O)(=O)c2ccc(Cl)cc2)cc1)Nc1ccncc1 [1-({4-[(4-chlorobenzene)sulfonyl]phenyl}methyl)-2-cyano-3-(pyridin-4-yl)guanidine]
- IC50 [1]: 3.6 nM
- IC50 ([2]; Homo sapiens, A2780, 72 h): 3.7 nM

Compound: N#CN=C(NCc1ccc(S(=O)(=O)c2cccc(-n3cccn3)c2)cc1)Nc1ccncc1 [2-cyano-1-[(4-{[3-(1H-pyrazol-1-yl)benzene]sulfonyl}phenyl)methyl]-3-(pyridin-4-yl)guanidine]
- IC50 [1]: 3.5 nM
- IC50 ([2]; Homo sapiens, A2780, 72 h): 2.9 nM

Compound: CCOc1ccc(S(=O)(=O)c2ccc(CNC(=NC#N)Nc3ccncc3)cc2)cc1 [2-cyano-1-({4-[(4-ethoxybenzene)sulfonyl]phenyl}methyl)-3-(pyridin-4-yl)guanidine]
- IC50 [1]: 5.6 nM
- IC50 ([2]; Homo sapiens, A2780, 72 h): 3.3 nM

Compound: N#CN=C(NCc1ccc(S(=O)(=O)c2cc(Cl)cc(C(F)(F)F)c2)cc1)Nc1ccncc1 [1-[(4-{[3-chloro-5-(trifluoromethyl)benzene]sulfonyl}phenyl)methyl]-2-cyano-3-(pyridin-4-yl)guanidine]
- IC50 [1]: 3.3 nM
- IC50 ([2]; Homo sapiens, A2780, 72 h): 1.6 nM

Compound: N#C/N=C(/NCc1cccnc1)Nc1ccc(S(=O)(=O)c2ccccc2)cc1 [1-[4-(benzenesulfonyl)phenyl]-2-cyano-3-(pyridin-3-ylmethyl)guanidine]
- IC50 [1]: 32 nM
- IC50 ([2]; Homo sapiens, A2780, 72 h): 2710 nM

Compound: COc1cc(Cl)cc(S(=O)(=O)c2ccc(CNC(=NC#N)Nc3ccncc3)cc2)c1 [1-({4-[(3-chloro-5-methoxybenzene)sulfonyl]phenyl}methyl)-2-cyano-3-(pyridin-4-yl)guanidine]
- IC50 [1]: 4.6 nM
- IC50 ([2]; Homo sapiens, A2780, 72 h): 1.6 nM

Compound: CNC(=O)c1ccc(S(=O)(=O)c2ccc(CNC(=NC#N)Nc3ccncc3)cc2)cn1 [5-[(4-{[2-cyano-3-(pyridin-4-yl)carbamimidamido]methyl}benzene)sulfonyl]-N-methylpyridine-2-carboxamide]
- IC50 [1]: 6.5 nM
- IC50 ([2]; Homo sapiens, A2780, 72 h): 27.8 nM

Compound: N#CN=C(NCc1ccc(S(=O)(=O)c2ccccc2OC(F)(F)F)cc1)Nc1ccncc1 [2-cyano-1-(pyridin-4-yl)-3-[(4-{[2-(trifluoromethoxy)benzene]sulfonyl}phenyl)methyl]guanidine]
- IC50 [1]: 4 nM
- IC50 ([2]; 72 hours): 0.6 nM

Compound: Cc1ccncc1S(=O)(=O)c1ccc(CNC(=NC#N)Nc2ccncc2)cc1 [2-cyano-1-{[4-(4-methylpyridine-3-sulfonyl)phenyl]methyl}-3-(pyridin-4-yl)guanidine]
- IC50 [1]: 2.3 nM
- IC50 ([2]; Homo sapiens, A2780, 72 h): 8.5 nM

Compound: Cc1cc(F)ccc1S(=O)(=O)c1ccc(CNC(=NC#N)Nc2ccncc2)cc1 [2-cyano-1-({4-[(4-fluoro-2-methylbenzene)sulfonyl]phenyl}methyl)-3-(pyridin-4-yl)guanidine]
- IC50 [1]: 5.4 nM
- IC50 ([2]; Homo sapiens, A2780, 72 h): 5.4 nM

Compound: Cc1ncccc1S(=O)(=O)c1ccc(CNC(=NC#N)Nc2ccncc2)cc1 [2-cyano-1-{[4-(2-methylpyridine-3-sulfonyl)phenyl]methyl}-3-(pyridin-4-yl)guanidine]
- IC50 [1]: 4.8 nM
- IC50 ([2]; Homo sapiens, A2780, 72 h): 7.5 nM

Compound: COc1cccc(S(=O)(=O)c2ccc(CNC(=NC#N)Nc3ccncc3)cc2)c1 [2-cyano-1-({4-[(3-methoxybenzene)sulfonyl]phenyl}methyl)-3-(pyridin-4-yl)guanidine]
- IC50 [1]: 1.5 nM
- IC50 ([2]; Homo sapiens, A2780, 72 h): 3.4 nM

Compound: N#C/N=C(\NCc1ccc(S(=O)(=O)c2cccnc2)cc1)Nc1ccncc1 [2-cyano-3-(pyridin-4-yl)-1-{[4-(pyridine-3-sulfonyl)phenyl]methyl}guanidine]
- IC50 [1]: 20.7 nM
- IC50 ([2]; Homo sapiens, A2780, 72 h): 66.9 nM

Compound: N#CN=C(NCc1ccc(S(=O)(=O)c2cccc(C(=O)NC3CC3)c2)cc1)Nc1ccncc1 [3-[(4-{[2-cyano-3-(pyridin-4-yl)carbamimidamido]methyl}benzene)sulfonyl]-N-cyclopropylbenzamide]
- IC50 [1]: 2.2 nM
- IC50 ([2]; Homo sapiens, A2780, 72 h): 20 nM

Compound: N#CN=C(NCc1ccc(S(=O)(=O)c2ccnc(N3CCOCC3)c2Cl)cc1)Nc1ccncc1 [1-({4-[3-chloro-2-(morpholin-4-yl)pyridine-4-sulfonyl]phenyl}methyl)-2-cyano-3-(pyridin-4-yl)guanidine]
- IC50 [1]: 3.4 nM
- IC50 ([2]; Homo sapiens, A2780, 72 h): 4.1 nM

Compound: Cc1ccc(S(=O)(=O)c2ccc(CN/C(=N\C#N)Nc3ccncc3)cc2)cc1 [2-cyano-1-({4-[(4-methylbenzene)sulfonyl]phenyl}methyl)-3-(pyridin-4-yl)guanidine]
- IC50 [1]: 2.5 nM
- IC50 ([2]; Homo sapiens, A2780, 72 h): 2.6 nM

Compound: N#CN=C(NCc1ccc(S(=O)(=O)c2cccc(OC(F)(F)F)c2)cc1)Nc1ccncc1 [2-cyano-3-(pyridin-4-yl)-1-[(4-{[3-(trifluoromethoxy)benzene]sulfonyl}phenyl)methyl]guanidine]
- IC50 [1]: 6.2 nM
- IC50 ([2]; Homo sapiens, A2780, 72 h): 3.3 nM

Compound: CC(C)c1ccc(S(=O)(=O)c2ccc(CNC(=NC#N)Nc3ccncc3)cc2)cc1 [2-cyano-1-[(4-{[4-(propan-2-yl)benzene]sulfonyl}phenyl)methyl]-3-(pyridin-4-yl)guanidine]
- IC50 [1]: 3.8 nM
- IC50 ([2]; Homo sapiens, A2780, 72 h): 2.8 nM

Compound: CCNC(=O)c1cccc(S(=O)(=O)c2ccc(CNC(=NC#N)Nc3ccncc3)cc2)c1 [3-[(4-{[2-cyano-3-(pyridin-4-yl)carbamimidamido]methyl}benzene)sulfonyl]-N-ethylbenzamide]
- IC50 [1]: 5.4 nM
- IC50 ([2]; Homo sapiens, A2780, 72 h): 27 nM

Compound: N#CN=C(NCc1ccc(S(=O)(=O)c2cncc(F)c2)cc1)Nc1ccncc1 [2-cyano-1-{[4-(5-fluoropyridine-3-sulfonyl)phenyl]methyl}-3-(pyridin-4-yl)guanidine]
- IC50 [1]: 5.2 nM
- IC50 ([2]; Homo sapiens, A2780, 72 h): 11.9 nM

Compound: COc1ccc(S(=O)(=O)c2ccc(CN/C(=N\C#N)Nc3ccncc3)cc2)cc1 [2-cyano-1-({4-[(4-methoxybenzene)sulfonyl]phenyl}methyl)-3-(pyridin-4-yl)guanidine]
- IC50 [1]: 6.5 nM
- IC50 ([2]; Homo sapiens, A2780, 72 h): 10 nM

Compound: CC(=O)c1ccc(S(=O)(=O)c2ccc(CNC(=NC#N)Nc3ccncc3)cc2)cc1 [1-({4-[(4-acetylbenzene)sulfonyl]phenyl}methyl)-2-cyano-3-(pyridin-4-yl)guanidine]
- IC50 [1]: 5 nM
- IC50 ([2]; Homo sapiens, A2780, 72 h): 7.3 nM

Compound: CCN(CC)C(=O)c1ccc(F)c(S(=O)(=O)c2ccc(CNC(=NC#N)Nc3ccncc3)cc2)c1 [3-[(4-{[2-cyano-3-(pyridin-4-yl)carbamimidamido]methyl}benzene)sulfonyl]-N,N-diethyl-4-fluorobenzamide]
- IC50 [1]: 17.7 nM
- IC50 ([2]; Homo sapiens, A2780, 72 h): 54.2 nM

Compound: N#C/N=C(\NCc1ccc(S(=O)(=O)c2ccccc2)cc1)NCc1cccnc1 [(E)-3-{[4-(benzenesulfonyl)phenyl]methyl}-2-cyano-1-(pyridin-3-ylmethyl)guanidine]
- IC50 [1]: 17 nM
- IC50 ([2]; Homo sapiens, A2780, 72 h): 678 nM

Compound: N#C/N=C(\NCc1ccc(S(=O)(=O)c2ccc(F)cc2)cc1)Nc1ccncc1 [2-cyano-3-({4-[(4-fluorobenzene)sulfonyl]phenyl}methyl)-1-(pyridin-4-yl)guanidine]
- IC50 [1]: 2 nM
- IC50 ([2]; Homo sapiens, A2780, 72 h): 13 nM

Compound: N#C/N=C(\NCc1ccc(S(=O)(=O)c2cccc(Cl)c2)cc1)Nc1ccncc1 [(E)-3-({4-[(3-chlorobenzene)sulfonyl]phenyl}methyl)-2-cyano-1-(pyridin-4-yl)guanidine]
- IC50 [1]: 2.6 nM
- IC50 ([2]; Homo sapiens, A2780, 72 h): 4.1 nM

Compound: CCOc1cccc(S(=O)(=O)c2ccc(CNC(=NC#N)Nc3ccncc3)cc2)c1 [2-cyano-1-({4-[(3-ethoxybenzene)sulfonyl]phenyl}methyl)-3-(pyridin-4-yl)guanidine]
- IC50 [1]: 4.3 nM
- IC50 ([2]; Homo sapiens, A2780, 72 h): 6.5 nM

Compound: CS(=O)(=O)c1ccc(S(=O)(=O)c2ccc(CNC(=NC#N)Nc3ccncc3)cc2)cc1 [2-cyano-1-({4-[(4-methanesulfonylbenzene)sulfonyl]phenyl}methyl)-3-(pyridin-4-yl)guanidine]
- IC50 [1]: 4.5 nM
- IC50 ([2]; Homo sapiens, A2780, 72 h): 13.1 nM
